Laboratory results from PubChem BioAssay AID248 (DTP/NCI, 2004).
“And” between values parts separate entries of the source, which are not always exact repeats. Equal values may be shown once. Toxic doses and inconclusive results are not listed. Rule as the data show it: active = T/C of 150% or more; inactive = T/C below 125%.

System: L1210 leukemia ip in BDF1 mice, survival T/C
Assay: NCI In Vivo Anticancer Drug Screen. Data for tumor model L1210 Leukemia (intraperitoneal) in B6D2F1 (BDF1) mice
Conditions: endpoint: mean survival time, higher = longer survival
In short: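 Tumor cells were implanted, animals were treated, and survival was followed. The result divides the treated measurement by the vehicle-control measurement.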

[1] = dose: 100.0 mg/kg/injection, schedule: Q01DX009 (ip), vehicle: Klucel (hydroxypropylcellulose) (HPC)
[2] = dose: 100.0 mg/kg/injection, schedule: Q04DX002 (ip), vehicle: Klucel (hydroxypropylcellulose) (HPC)
[3] = dose: 200.0 mg/kg/injection, schedule: Q01DX009 (ip), vehicle: Klucel (hydroxypropylcellulose) (HPC)
[4] = dose: 200.0 mg/kg/injection, schedule: Q04DX002 (ip), vehicle: Klucel (hydroxypropylcellulose) (HPC)
[5] = dose: 400.0 mg/kg/injection, schedule: Q01DX009 (ip), vehicle: Klucel (hydroxypropylcellulose) (HPC)
[6] = dose: 100.0 mg/kg/injection, schedule: Q01DX001 (ip), vehicle: saline with Tween-80
[7] = dose: 100.0 mg/kg/injection, schedule: Q01DX009 (ip), vehicle: saline with Tween-80
[8] = dose: 100.0 mg/kg/injection, schedule: Q04DX003 (ip), vehicle: saline with Tween-80
[9] = dose: 200.0 mg/kg/injection, schedule: Q01DX001 (ip), vehicle: saline with Tween-80
[10] = dose: 200.0 mg/kg/injection, schedule: Q01DX009 (ip), vehicle: saline with Tween-80
[11] = dose: 200.0 mg/kg/injection, schedule: Q04DX003 (ip), vehicle: saline with Tween-80
[12] = dose: 400.0 mg/kg/injection, schedule: Q01DX001 (ip), vehicle: saline with Tween-80
[13] = dose: 400.0 mg/kg/injection, schedule: Q01DX009 (ip), vehicle: saline with Tween-80
[14] = dose: 400.0 mg/kg/injection, schedule: Q04DX003 (ip), vehicle: saline with Tween-80
[15] = dose: 50.0 mg/kg/injection, schedule: Q04DX003 (ip), vehicle: saline
[16] = dose: 100.0 mg/kg/injection, schedule: Q04DX003 (ip), vehicle: saline
[17] = dose: 100.0 mg/kg/injection, schedule: Q04DX003 (ip), vehicle: Klucel (hydroxypropylcellulose) (HPC)
[18] = dose: 200.0 mg/kg/injection, schedule: Q04DX003 (ip), vehicle: Klucel (hydroxypropylcellulose) (HPC)
[19] = dose: 400.0 mg/kg/injection, schedule: Q04DX003 (ip), vehicle: Klucel (hydroxypropylcellulose) (HPC)
[20] = dose: 100.0 mg/kg/injection, schedule: Q01DX001 (ip), vehicle: saline
[21] = dose: 200.0 mg/kg/injection, schedule: Q01DX001 (ip), vehicle: saline
[22] = dose: 200.0 mg/kg/injection, schedule: Q04DX003 (ip), vehicle: saline
[23] = dose: 100.0 mg/kg/injection, schedule: Q01DX009 (ip), vehicle: saline
[24] = dose: 200.0 mg/kg/injection, schedule: Q01DX009 (ip), vehicle: saline
[25] = dose: 400.0 mg/kg/injection, schedule: Q01DX009 (ip), vehicle: saline
[26] = dose: 400.0 mg/kg/injection, schedule: Q04DX003 (ip), vehicle: saline

Measured: T/C

O=C(Nc1cc(C(F)(F)F)ccc1Cl)Oc1ccc(F)cc1Cl
inactive: [1] 97 % of control and 101 % of control | [2] 95 % of control and 100 % of control | [3] 101 % of control and 108 % of control | [4] 100 % of control and 104 % of control | [5] 108 % of control and 89 % of control | dose: 400.0 mg/kg/injection, schedule: Q04DX002 (ip), vehicle: Klucel (hydroxypropylcellulose) (HPC) 103 % of control and 110 % of control

C=CCN(CC=C)/N=N\c1nc[nH]c1C(=O)OC
inactive: [6] 100 % of control | [7] 109 % of control | [8] 98 % of control | [9] 102 % of control | [10] 95 % of control | [11] 98 % of control | [12] 98 % of control | [13] 93 % of control | [14] 96 % of control

O=C(Nc1ccc(C(=O)O)c(O)c1)c1ccccc1
inactive: dose: 100.0 mg/kg/injection, schedule: Q01DX001 (ip), vehicle: acetone 96 % of control | dose: 100.0 mg/kg/injection, schedule: Q04DX003 (ip), vehicle: saline sonified 98 % of control | dose: 200.0 mg/kg/injection, schedule: Q01DX001 (ip), vehicle: acetone 97 % of control | dose: 200.0 mg/kg/injection, schedule: Q04DX003 (ip), vehicle: saline sonified 101 % of control | dose: 400.0 mg/kg/injection, schedule: Q01DX001 (ip), vehicle: acetone 97 % of control | dose: 400.0 mg/kg/injection, schedule: Q04DX003 (ip), vehicle: saline sonified 101 % of control

Cc1cccc(C[As](C)(=O)O)c1
inactive: dose: 25.0 mg/kg/injection, schedule: Q04DX003 (ip), vehicle: saline 94 % of control | [15] 98 % of control | [16] 100 % of control and 103 % of control

CC(C)NC(=O)C1CC2c3cccc4c3c(cn4CN(C)C)CC2N(C)C1 (stereo unspecified)
inactive: dose: 2.5 mg/kg/injection, schedule: Q04DX003 (ip), vehicle: saline 101 % of control | dose: 5.0 mg/kg/injection, schedule: Q04DX003 (ip), vehicle: saline 101 % of control | dose: 10.0 mg/kg/injection, schedule: Q04DX003 (ip), vehicle: saline 100 % of control | dose: 12.5 mg/kg/injection, schedule: Q04DX002 (ip), vehicle: saline 113 % of control | dose: 20.0 mg/kg/injection, schedule: Q04DX003 (ip), vehicle: saline 101 % of control | dose: 25.0 mg/kg/injection, schedule: Q04DX002 (ip), vehicle: saline 108 % of control

Nc1nc(N)c(-c2ccc(Cl)cc2)c(CCc2cccc(NC(=O)c3cccc(S(=O)(=O)F)c3)c2)n1
inactive: [6] 93 % of control | [9] 95 % of control | [12] 97 % of control

CC(=O)NCCCOc1ccc([N+](=O)[O-])cc1
inactive: [17] 101 % of control | [18] 91 % of control | [19] 92 % of control

CCNC(C)(C)C(SSSC(c1ccc(Br)cc1)C(C)(C)NCC)c1ccc(Br)cc1 (stereo unspecified)
inactive: dose: 25.0 mg/kg/injection, schedule: Q01DX009 (ip), vehicle: water 96 % of control | dose: 50.0 mg/kg/injection, schedule: Q01DX009 (ip), vehicle: water 90 % of control | dose: 100.0 mg/kg/injection, schedule: Q01DX009 (ip), vehicle: water 88 % of control

CC(=O)/C(=C/c1ccccc1)N=P(c1ccccc1)(c1ccccc1)c1ccccc1
inactive: [15] 90 % of control | [20] 87 % of control | [16] 92 % of control | [21] 89 % of control | [22] 90 % of control

CC1CC[N+]2(CC(=O)c3ccc(Br)cc3)CCCC12 (stereo unspecified)
inactive: dose: 12.5 mg/kg/injection, schedule: Q01DX001 (ip), vehicle: saline 101 % of control | dose: 25.0 mg/kg/injection, schedule: Q01DX001 (ip), vehicle: saline 104 % of control | dose: 50.0 mg/kg/injection, schedule: Q01DX001 (ip), vehicle: saline 98 % of control

CN(C)C1CCC2C3CC=C4CC(OC=O)CCC4(C)C3CCC21C (stereo unspecified)
inactive: dose: 9.38 mg/kg/injection, schedule: Q01DX001 (ip), vehicle: other 101 % of control | dose: 18.75 mg/kg/injection, schedule: Q01DX001 (ip), vehicle: other 101 % of control | dose: 37.5 mg/kg/injection, schedule: Q01DX001 (ip), vehicle: other 100 % of control

CC(=O)OC(C)C(=O)C(Cl)(Cl)Cl (stereo unspecified)
inactive: [1] 100 % of control | [17] 96 % of control | [3] 98 % of control | [18] 103 % of control | [5] 91 % of control | [19] 101 % of control

CC(=O)CC(=O)C(F)(F)F.CC(=O)CC(=O)C(F)(F)F.[Mn]
inactive: dose: 25.0 mg/kg/injection, schedule: Q01DX009 (ip), vehicle: Klucel (hydroxypropylcellulose) (HPC) 106 % of control | dose: 50.0 mg/kg/injection, schedule: Q01DX005 (ip), vehicle: Klucel (hydroxypropylcellulose) (HPC) 97 % of control | dose: 50.0 mg/kg/injection, schedule: Q01DX009 (ip), vehicle: Klucel (hydroxypropylcellulose) (HPC) 106 % of control | dose: 100.0 mg/kg/injection, schedule: Q01DX005 (ip), vehicle: Klucel (hydroxypropylcellulose) (HPC) 93 % of control | [1] 106 % of control | [2] 104 % of control | [4] 96 % of control

CC(C)(CC(=O)O)c1ccccc1
inactive: [20] 96 % of control | [23] 104 % of control | [16] 100 % of control | [21] 106 % of control | [24] 101 % of control | [22] 104 % of control | dose: 400.0 mg/kg/injection, schedule: Q01DX001 (ip), vehicle: saline 96 % of control | [25] 96 % of control | [26] 91 % of control

CC(C)c1cc[n+](/C(C(=S)Nc2ccccc2Cl)=C(/[O-])c2ccc([N+](=O)[O-])cc2)cc1
inactive: [1] 94 % of control | [3] 97 % of control | [5] 96 % of control

CCCCCCCCC(=O)CCCCCC
inactive: [7] 99 % of control | [8] 105 % of control | [10] 97 % of control | [11] 108 % of control | [13] 99 % of control | [14] 101 % of control

CCOc1ccn(CC(=O)Nc2nccs2)c(=O)n1
inactive: [23] 100 % of control | [16] 98 % of control | [24] 103 % of control | [22] 96 % of control | [25] 105 % of control | [26] 100 % of control

O=C(NO)Nc1ccccc1
inactive: dose: 50.0 mg/kg/injection, schedule: Q01DX Z (ip), vehicle: carboxymethylcellulose (CMC) 94 % of control | [7] 98 % of control | dose: 100.0 mg/kg/injection, schedule: Q01DX Z (ip), vehicle: carboxymethylcellulose (CMC) 95 % of control | [8] 95 % of control | dose: 150.0 mg/kg/injection, schedule: Q01DX Z (ip), vehicle: methylcellulose (MC) 112 % of control | [10] 109 % of control | [11] 96 % of control | dose: 230.0 mg/kg/injection, schedule: Q01DX Z (ip), vehicle: methylcellulose (MC) 97 % of control | [13] 98 % of control | [14] 106 % of control

Cc1ccc(C)c(C(=O)c2ccccc2C(=O)O)c1
inactive: dose: 10.0 mg/kg/injection, schedule: Q01DX009 (ip), vehicle: saline 101 % of control | dose: 100.0 mg/kg/injection, schedule: Q01DX009 (ip), vehicle: saline sonified 98 % of control | [8] 90 % of control | dose: 200.0 mg/kg/injection, schedule: Q01DX009 (ip), vehicle: saline sonified 94 % of control | [24] 103 % of control | [11] 94 % of control | dose: 400.0 mg/kg/injection, schedule: Q01DX009 (ip), vehicle: saline sonified 105 % of control | [25] 98 % of control | [14] 90 % of control
